Legend:
[1] = biological target: T1, PI3K (p110δ/p85α) (h) (Homo sapiens, UniProt O00329); test: PI3K (p110δ/p85α) (h) non-radioactive HTRF kinase assay; assay type: biochemical; conditions: Kinase inhibition data; performed at Millipore UK Ltd
T1 construct: purchased Millipore UK Ltd
Method: The above assay procedure can be used to determine the IC50 for inhibition and/or the inhibition constant, Ki.
PI3K (p110δ/p85α) (h) [Non-Radioactive Assay]
PI3K (p110δ/p85α) (h) is incubated in assay buffer containing 10 μM phosphatidylinositol-4, 5-bisphosphate and MgATP (concentration as required). The reaction is initiated by the addition of the MgATP mix. After incubation for 30 minutes at room temperature, the reaction is stopped by the addition of stop solution containing EDTA and biotinylated phosphatidylinositol-3,4,5-trisphosphate. Finally, detection buffer is added, which contains europium-labelled anti-GST monoclonal antibody, GST-tagged GRP1 PH domain and streptavidin-allophycocyanin. The plate is then read in timeresolved fluorescence mode and the homogenous time-resolved fluorescence (HTRF) signal is determined according to the formula HTRF=10000×(Em665 nm/Em620 nm).
The kinase assays described herein were performed at Millipore UK Ltd, Dundee Technology Park, Dundee DD2 1SW, UK.

[2] = Pharmacokinetics after intravenous and oral administration in rats; assay type: in vivo; conditions: for CL/F / bioavailability: Rats; for CL/F: iv dosing, dose 1 mg/kg (0.5 for Ex. 1, 10, 11, 35; 0.48 for Ex. 24); for AUC(0-t) / half-life / Vd / bioavailability: rat, plasma; for AUC(0-t) / half-life / Vd: iv, 1 mg/kg; for Vd: read-out: Vss; for bioavailability: oral (p.o.) generally 5 or 10 mg/kg versus iv dosing
Method: The LC/MS/MS system used in the analysis consists of an Agilent 1200 Series vacuum degasser, binary pump, well-plate autosampler, thermostatted column compartment, the Agilent G6430 Triple Quadrupole Mass Spectrometer with an electrosprayionization (ESI) source. Quantitative analysis was carried out using MRM mode. The parameters for MRM transitions are in the Table A.
An Agilent XDB-C18, 2.1×30 mm, 3.5 M column was used for the analysis. 5 L of the samples were injected. Analysis condition: The mobile phase was 0.1% formic acid in water (A) and 0.1% formic acid in methanol (B). The flow rate was 0.4 mL/min. And the gradient of Mobile phase was in the Table B.
Alternatively, an Agilent 6330 series LC/MS/MS spectrometer equipped with G1312A binary pumps, a G1367A autosampler and a G1314C UV detector were used in the analysis. An ESI source was used on the LC/MS/MS spectrometer. The analysis was done in positive ion mode as appropriate and the MRM transition for each analyte was optimized using standard solution. A Capcell MP-C18 100×4.6 mm I.D., […] column (Phenomenex, Torrance, Calif., USA) was used during the analysis. The mobile phase was 5 mM ammonia acetate, 0.1% MeOH in water (A): 5 mM ammonia acetate, 0.1% MeOH in acetonitrile (B) (70:30, v/v). The flow rate was 0.6 mL/min. Column was maintained at ambient temperature. 20 μL of the samples were injected.
The compounds disclosed herein are assessed in pharmacokinetic studies in mice, rats, dogs or monkeys. The compounds are administered as a water solution, 2% HPMC+1% TWEEN®80 in water solution, 5% DMSO+5% solutol in saline, 4% MC suspension or capsule. For the intravenous administration, the animals are generally given at 1 or 2 mg/kg dose. For the oral (p.o.) dosing, mice and rats are generally given 5 or 10 mg/kg dose, and dogs and monkeys are generally given 10 mg/kg dose. The blood samples (0.3 mL) are drawn at 0.25, 0.5, 1.0, 2.0, 3.0, 4.0, 6.0, 8.0, 12 and 24 h time points or 0.083, 0.25, 0.5, 1.0, 2.0, 4.0, 6.0, 8.0 and 24 h time points and centrifuged at 3,000 or 4000 rpm for 2 to 10 min. The plasma solutions are collected, stored at −20° C. or −70° C. until analyzed by LC/MS/MS as described above.

[3] = Compound stability in human liver microsomes; assay type: in vitro ADME; conditions: for half-life at 5 μM: human liver microsomes 0.5 mg protein/mL, compound 5 μM, NADPH 1.0 mM, pH 7.4, 37° C., read-out: Human T1/2; for CLint scaled at 5 μM: liver microsomes, pH 7.4, in vivo CLint extrapolated from human liver microsome incubation
Method: (§1) Human or rat liver microsomes incubations were conducted in duplicate in polypropylene tubes. The typical incubation mixtures consisted of human or rat liver microsomes (0.5 mg protein/mL), compounds of interest (5 μM) and NADPH (1.0 mM) in a total volume of 200 μL potassium phosphate buffer (PBS, 100 mM, pH 7.4). Compounds were dissolved in DMSO and diluted with PBS such that the final concentration of DMSO was 0.05%. The enzymatic reactions were commenced with the addition of protein after a 3-min preincubation and incubated in a water bath open to the air at 37° C. Reactions were terminated at various time points (0, 5, 10, 15, 30, 60 min) by adding equal volume of ice-cold acetonitrile. The samples were stored at −80° C. until LC/MS/MS assays.
(§2) The concentrations of compounds in the incubation mixtures of human or rat liver microsomes were determined by a LC/MS/MS method. The ranges of the linearity in the concentration range were determined for each tested compounds.
(§3) A parallel incubation was performed using denatured microsomes as the negative control, and reactions were terminated at various time points (0, 15, 60 min) after incubation at 37° C.
(§4) Dextromethorphan (70 μM) was selected as the positive control, and reactions were terminated at various time points (0, 5, 10, 15, 30, 60 min) after incubation at 37° C. Both positive and negative control samples were included in each assay to ensure the integrity of the microsomal incubation system.
(§5) The concentrations of compounds in human or rat liver microsome incubations were plotted as a percentage of the relevant zero time point control for each reaction. The in vivo CLint were extrapolated (ref.: Naritomi, Y.; Terashita, S.; Kimura, S.; Suzuki, A.; Kagayama, A.; and Sugiyama, Y.; Prediction of human hepatic clearance from in vivo animal experiments and in vitro metabolic studies with liver microsomes from animals and humans. Drug Metab. Dispos., 2001, 29: 1316-1324).

[4] = Compound stability in rat liver microsomes; assay type: in vitro ADME; conditions: for CLint scaled at 5 μM: liver microsomes, pH 7.4, in vivo CLint extrapolated from rat liver microsome incubation; for half-life at 5 μM: rat liver microsomes 0.5 mg protein/mL, compound 5 μM, NADPH 1.0 mM, pH 7.4, 37° C., read-out: Rat T1/2
Method: as §1, §2, §3, §4, §5

T1 sequence (O00329 whole entry): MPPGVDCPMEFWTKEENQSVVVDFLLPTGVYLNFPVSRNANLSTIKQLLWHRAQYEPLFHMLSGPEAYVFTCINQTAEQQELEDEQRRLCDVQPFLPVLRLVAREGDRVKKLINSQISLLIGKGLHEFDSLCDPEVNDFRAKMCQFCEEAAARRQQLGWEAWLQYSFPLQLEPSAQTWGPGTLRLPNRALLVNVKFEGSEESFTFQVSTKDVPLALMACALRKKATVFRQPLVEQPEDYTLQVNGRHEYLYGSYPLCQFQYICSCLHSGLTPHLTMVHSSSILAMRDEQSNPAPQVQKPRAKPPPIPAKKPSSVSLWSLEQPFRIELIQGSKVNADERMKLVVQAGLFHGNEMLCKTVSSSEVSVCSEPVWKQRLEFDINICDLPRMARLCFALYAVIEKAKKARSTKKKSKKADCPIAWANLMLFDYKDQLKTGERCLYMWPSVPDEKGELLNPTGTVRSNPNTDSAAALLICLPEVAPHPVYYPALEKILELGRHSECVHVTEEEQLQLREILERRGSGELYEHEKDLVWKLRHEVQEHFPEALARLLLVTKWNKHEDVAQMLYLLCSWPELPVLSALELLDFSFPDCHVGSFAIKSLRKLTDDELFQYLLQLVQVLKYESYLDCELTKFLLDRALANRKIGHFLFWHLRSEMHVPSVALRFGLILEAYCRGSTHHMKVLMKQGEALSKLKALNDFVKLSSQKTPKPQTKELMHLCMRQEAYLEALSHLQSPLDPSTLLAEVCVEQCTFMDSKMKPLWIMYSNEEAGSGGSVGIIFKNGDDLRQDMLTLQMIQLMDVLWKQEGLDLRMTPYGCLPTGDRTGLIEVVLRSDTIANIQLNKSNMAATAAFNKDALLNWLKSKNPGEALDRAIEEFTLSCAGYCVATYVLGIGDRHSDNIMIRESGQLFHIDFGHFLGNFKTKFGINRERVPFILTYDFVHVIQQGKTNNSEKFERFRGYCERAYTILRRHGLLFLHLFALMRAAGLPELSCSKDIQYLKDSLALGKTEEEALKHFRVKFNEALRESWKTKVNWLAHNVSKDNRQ
T1 sequence (P27986 whole entry partner): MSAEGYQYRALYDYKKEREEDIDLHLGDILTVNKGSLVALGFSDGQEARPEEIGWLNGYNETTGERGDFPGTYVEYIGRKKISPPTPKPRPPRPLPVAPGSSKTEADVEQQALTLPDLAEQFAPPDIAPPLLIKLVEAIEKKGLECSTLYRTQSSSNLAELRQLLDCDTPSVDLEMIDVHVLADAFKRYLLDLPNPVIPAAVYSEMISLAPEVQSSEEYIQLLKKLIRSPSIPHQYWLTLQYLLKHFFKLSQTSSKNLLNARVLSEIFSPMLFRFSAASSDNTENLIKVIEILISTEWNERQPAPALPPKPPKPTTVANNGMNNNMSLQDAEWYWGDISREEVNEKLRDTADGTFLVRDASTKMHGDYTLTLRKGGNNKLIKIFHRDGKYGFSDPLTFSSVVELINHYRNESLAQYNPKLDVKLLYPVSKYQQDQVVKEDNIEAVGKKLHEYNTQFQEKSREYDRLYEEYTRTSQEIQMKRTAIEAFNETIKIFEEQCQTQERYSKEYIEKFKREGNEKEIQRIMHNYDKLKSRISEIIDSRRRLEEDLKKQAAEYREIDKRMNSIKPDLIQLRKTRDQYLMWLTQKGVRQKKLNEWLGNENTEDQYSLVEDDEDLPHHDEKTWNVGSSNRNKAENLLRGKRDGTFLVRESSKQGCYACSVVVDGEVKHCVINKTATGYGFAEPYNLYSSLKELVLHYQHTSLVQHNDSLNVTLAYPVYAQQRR

Row | Structure (SMILES) | IC50 [1] | CL/F [2] | AUC(0-t) [2] | half-life [2] | Vd [2] | bioavailability [2] | half-life at 5 μM [3] | CLint scaled at 5 μM [3] | CLint scaled at 5 μM [4] | half-life at 5 μM [4]
1 | Cc1nnc(-c2c(N)ncnc2N[C@@H](C)c2nc3cccc(-c4cnn(C)c4)c3c(=O)n2C2CC2)o1 [Ex. 67, (S)-2-(1-((6-amino-5-(5-methyl-1,3,4-oxadiazol-2-yl)pyrimidin-4-yl)amino)ethyl)-3-cyclopropyl-5-(1-methyl-1H-pyrazol-4-yl)quinazolin-4(3H)-one] | 47 nM | 23.2 mL/min/kg | 777 ng·h/mL | 1.14 h | 1.86 L/kg | 71.7% | 1.58 h | 18.3 mL/min/kg | 10.1 mL/min/kg | 4.08 h
2 | Cc1nnc(-c2c(N)ncnc2N[C@@H](C)c2nc3cccc(Cl)c3c(=O)n2C2CC2)o1 [Ex. 70, (S)-2-(1-((6-amino-5-(5-methyl-1,3,4-oxadiazol-2-yl)pyrimidin-4-yl)amino)ethyl)-5-chloro-3-cyclopropylquinazolin-4(3H)-one] | 50 nM | 44 mL/min/kg | 399 ng·h/mL | 0.85 h | 3.3 L/kg | 96.4% | 1.1 h | 26.3 mL/min/kg | 37.8 mL/min/kg | 1.1 h
3 | CC[C@H](Nc1ncnc(N)c1-c1nnc(C)o1)c1nc2cccc(-c3cnn(C)c3)c2c(=O)n1-c1ccccc1 [Ex. 73, (S)-2-(1-((6-amino-5-(5-methyl-1,3,4-oxadiazol-2-yl)pyrimidin-4-yl)amino)propyl)-5-(1-methyl-1H-pyrazol-4-yl)-3-phenylquinazolin-4(3H)-one] | – | 20.7 mL/min/kg | 807 ng·h/mL | 0.85 h | 1.44 L/kg | 104% | – | – | – | –
4 | CC[C@H](Nc1ncnc(N)c1-c1nc(C)no1)c1nc2cccc(-c3cnn(C)c3)c2c(=O)n1-c1ccccc1 [Ex. 74, (S)-2-(1-((6-amino-5-(3-methyl-1,2,4-oxadiazol-5-yl)pyrimidin-4-yl)amino)propyl)-5-(1-methyl-1H-pyrazol-4-yl)-3-phenylquinazolin-4(3H)-one] | – | 14.3 mL/min/kg | 1120 ng·h/mL | 1.56 h | 1.83 L/kg | 105% | – | – | – | –
5 | C[C@H](Nc1ncnc(N)c1-c1nnn(C)n1)c1nc2cccc(-c3cnn(C)c3)c2c(=O)n1C1CC1 [Ex. 75, (S)-2-(1-((6-amino-5-(2-methyl-2H-tetrazol-5-yl)pyrimidin-4-yl)amino)ethyl)-3-cyclopropyl-5-(1-methyl-1H-pyrazol-4-yl)quinazolin-4(3H)-one] | – | 19.8 mL/min/kg | 841 ng·h/mL | 1.41 h | 2.01 L/kg | 72.5% | – | – | – | –
6 | C[C@H](Nc1ncnc(N)c1-c1nnn(C)n1)c1nc2cccc(-c3cnn(C)c3)c2c(=O)n1-c1ccccc1 [Ex. 76, (S)-2-(1-((6-amino-5-(2-methyl-2H-tetrazol-5-yl)pyrimidin-4-yl)amino)ethyl)-5-(1-methyl-1H-pyrazol-4-yl)-3-phenylquinazolin-4(3H)-one] | – | 6.5 mL/min/kg | 2510 ng·h/mL | 1.45 h | 0.77 L/kg | 105% | 4.49 h | 6.46 mL/min/kg | 8.61 mL/min/kg | 4.81 h
7 | Cc1nc(-c2c(N)ncnc2N[C@@H](C)c2nc3cccc(-c4cnn(C)c4)c3c(=O)n2-c2ccccc2)no1 [Ex. 77, (S)-2-(1-((6-amino-5-(5-methyl-1,2,4-oxadiazol-3-yl)pyrimidin-4-yl)amino)ethyl)-5-(1-methyl-1H-pyrazol-4-yl)-3-phenylquinazolin-4(3H)-one] | – | 5.33 mL/min/kg | 2920 ng·h/mL | 1.76 h | 0.78 L/kg | 109% | 1.36 h | 21.3 mL/min/kg | 21.2 mL/min/kg | 1.95 h
8 | CC[C@H](Nc1ncnc(N)c1-c1nnn(C)n1)c1nc2cccc(-c3cnn(C)c3)c2c(=O)n1C1CC1 [Ex. 78, (S)-2-(1-((6-amino-5-(2-methyl-2H-tetrazol-5-yl)pyrimidin-4-yl)amino)propyl)-3-cyclopropyl-5-(1-methyl-1H-pyrazol-4-yl)quinazolin-4(3H)-one] | – | 20.8 mL/min/kg | 783 ng·h/mL | 1.27 h | 2.18 L/kg | 67.7% | 1 h | 28.9 mL/min/kg | 38.3 mL/min/kg | 1.08 h
9 | CC[C@H](Nc1ncnc(N)c1-c1noc(C)n1)c1nc2cccc(-c3cnn(C)c3)c2c(=O)n1C1CC1 [Ex. 79, (S)-2-(1-((6-amino-5-(5-methyl-1,2,4-oxadiazol-3-yl)pyrimidin-4-yl)amino)propyl)-3-cyclopropyl-5-(1-methyl-1H-pyrazol-4-yl)quinazolin-4(3H)-one] | – | 32.2 mL/min/kg | 511 ng·h/mL | 1.36 h | 4.25 L/kg | 78.7% | 0.821 h | 35.3 mL/min/kg | 17.3 mL/min/kg | 2.4 h
10 | Cc1nc(-c2c(N)ncnc2N[C@@H](C)c2nc3cccc(-c4cnn(C)c4)c3c(=O)n2C2CC2)no1 [Ex. 80, (S)-2-(1-((6-amino-5-(5-methyl-1,2,4-oxadiazol-3-yl)pyrimidin-4-yl)amino)ethyl)-3-cyclopropyl-5-(1-methyl-1H-pyrazol-4-yl)quinazolin-4(3H)-one] | – | – | – | – | – | – | 1.07 h | 27 mL/min/kg | 37.7 mL/min/kg | 1.1 h
